Here are results for seven molecules from patent publication US7732468B2, “3-aryl-6-aryl-[ 1,2,4]triazolo[3,4-b][1,3,4]thiadiazoles and related compounds as activators of caspases and inducers of apoptosis and the use thereof” (Cytovia, Inc., priority 2006, dated 2010).

By pEC50 is commonly meant the negative decadic logarithm of the EC50, by convention in mol/L. As usually defined, the GI50 is the concentration that inhibits growth by half.

pEC50: −log10 of the molar value. Some results are limits rather than exact numbers.

Format in all cases: cell-based
Assay [1] deals with human B cell lymphoblastoid cell line Ramos. The assay can be described thus: Caspase cascade activation in Ramos cells. To be noted: 48 h incubation, read-out: caspase potency EC50 RAMOS. The method, then:
(§1) Human breast cancer cell lines T-47D, human hepatocellular carcinoma cell line SNU398, human colon carcinoma cell line HCT116, human cancer cell line H11299, human Burkitt's lymphoma cell line Namalwa, human lymphoma cell line Raji, and human B cell lymphoblastoid cell line Ramos were grown according to media component mixtures designated by American Type Culture Collection+10% FCS (Invitrogen Corporation), in a 5% CO2-95% humidity incubator at 37° C. T-47D and H1299 cells were maintained at a cell density between 50 and 80% confluency at a cell density of 0.1 to 0.6×10^6 cells/mL. Cells were harvested at 600×g and resuspended at 0.65×10^6 cells/mL into appropriate media+10% FCS. An aliquot of 22.5 μL of cells was added to a well of a 384-well microtiter plate containing 2.5 μL of a 10% DMSO in RPMI-1640 media solution containing 0.16 to 100 μM of 6-(3,4-dimethoxyphenyl)-3-(2-methoxyphenyl)-[1,2,4]triazolo[3,4-b][1,3,4]thiadiazole or other test compound (0.016 to 10 μM final). An aliquot of 22.5 μL of cells was added to a well of a 384-well microtiter plate containing 2.5 μL of a 10% DMSO in RPMI-1640 media solution without test compound as the control sample. The samples were mixed by agitation and then incubated at 37° C. for 48 h in a 5% CO2-95% humidity incubator. After incubation, the samples were removed from the incubator and 25 μL of a solution containing 14 μM of N-(Ac-DEVD)-N′-ethoxycarbonyl-R110 (SEQ ID No.:1) fluorogenic substrate (Cytovia, Inc.; WO99/18856), 20% sucrose (Sigma), 20 mM DTT (Sigma), 200 mM NaCl (Sigma), 40 mM Na PIPES buffer pH 7.2 (Sigma), and 500 μg/mL lysolecithin (Calbiochem) was added. The samples were mixed by agitation and incubated at room temperature. Using a fluorescent plate reader (Model SPECTRAfluor Plus, Tecan), an initial reading (T=0) was made approximately 1-2 min after addition of the substrate solution, employing excitation at 485 nm and emission at 530 nm, to determine the background fluorescence of the control sample. After the 3 h incubation, the samples were read for fluorescence as above (T=3 h).
(§2) The Relative Fluorescence Unit values (RFU) were used to calculate the sample readings as follows: RFU(T=3h)−Control RFU(T=0)=Net RFU(T=3h)
(§3) The activity of caspase cascade activation was determined by the ratio of the net RFU value for 6-(3,4-dimethoxyphenyl)-3-(2-methoxyphenyl)-[1,2,4]triazolo[3,4-b][1,3,4]thiadiazole (Example I) or other test compound to that of control samples. The EC50 (nM) was determined by a sigmoidal dose-response calculation (Prism 3.0, GraphPad Software Inc.).

The subject of assay [2] is human Burkitt's lymphoma cell line Namalwa. Put plainly: Inhibition of cell proliferation (GI50) in Namalwa cells. As to conditions: Burkitts lymphoma cell, 48 h incubation. The method, then: (§4) Human breast cancer cell lines T-47D, MX1 and MDAMB435, human colon carcinoma cell line HCT116, human leukemia cell line K562, human lymphoma cell line Raji, human B cell lymphoblastoid cell line Ramos, and human Burkitt's lymphoma cell line Namalwa were grown and harvested as in Example 14. An aliquot of […] of cells (4.4×10^4 cells/mL) was added to a well of a 96-well microtiter plate containing 5 μL of a 10% DMSO in RPMI-1640 media solution containing 10 nM to 100 μM of 6-(3,4-dimethoxyphenyl)-3-(2-methoxyphenyl)-[1,2,4]triazolo[3,4-b][1,3,4]thiadiazole (1 nM to 10 μM final). An aliquot of 45 μL of cells was added to a well of a 96-well microtiter plate containing 5 μL of a 10% DMSO in RPMI-1640 media solution without compound as the control sample for maximal cell proliferation (LMax). The samples were mixed by agitation and then incubated at 37° C. for 48 h in a 5% CO2-95% humidity incubator. After incubation, the samples were removed from the incubator and 25 μL of CellTiter-Glo™ reagent (Promega) was added. The samples were mixed by agitation and incubated at room temperature for 10-15 min. Plates were then read using a luminescent plate reader (Model SPECTRAfluor Plus, Tecan) to give Ltest values.
(§5) The samples were mixed by agitation and then incubated at 37° C. for 0.5 h in a 5% CO2-95% humidity incubator. After incubation, the samples were removed from the incubator and 25 μL of CellTiter-Glo™ reagent (Promega) was added. The samples were mixed by agitation and incubated at […] 10-15 min at room temperature in a 5% CO2-95% humidity incubator. Fluorescence was read as above, (LStart) defining luminescence for initial cell number used as baseline in GI50 determinations.
(§6) GI50 (dose for 50% inhibition of cell proliferation) is the concentration where [(LTest−LStart)/(LMax−LStart)]=0.5.

The test system of assay [3] is human leukemia cell line K562. Put plainly: Inhibition of cell proliferation (GI50) in K562 cells. As to conditions: 48 h incubation. The protocol:
as §4, §5, §6

In assay [4] the test system is human colon carcinoma cell line HCT116. Put plainly: Inhibition of cell proliferation (GI50) in HCT116 cells. As to conditions: HCT 116 cells, 48 h incubation. The method, then: as §4, §5, §6
Assay [5] relates to human lymphoma cell line Raji. The assay can be described thus: Inhibition of cell proliferation (GI50) in Raji cells. As to conditions: 48 h incubation. The protocol: as §4, §5, §6
For assay [6], the system named is human B cell lymphoblastoid cell line Ramos. Put plainly: Inhibition of cell proliferation (GI50) in Ramos cells. As to conditions: 48 h incubation. The protocol:
as §4, §5, §6

The test system of assay [7] is human Burkitt's lymphoma cell line Namalwa. Put plainly: Caspase cascade activation in Namalwa cells. As to conditions: Burkitts lymphoma cell, 48 h incubation, read-out: caspase potency EC50 Namalwa. The method, then:
as §1, §2, §3

In assay [8] the test system is Human breast cancer cell lines T-47D. Put plainly: Caspase cascade activation (Ac-DEVD-R110 fluorogenic substrate) in T-47D cells. As to conditions: T47D cells, 48 h incubation, read-out: caspase potency EC50 T47D. The method, then: as §1, §2, §3
The subject of assay [9] is human colon carcinoma cell line HCT116. Put plainly: Caspase cascade activation in HCT116 cells. As to conditions: HCT-116, 48 h incubation, read-out: caspase potency EC50 HCT116. The protocol: as §1, §2, §3
Assay [10] deals with human hepatocellular carcinoma cell line SNU398. Put plainly: Caspase cascade activation in SNU398 cells. As to conditions: SNU-398, 48 h incubation, read-out: caspase potency EC50 SNU398. The protocol: as §1, §2, §3
Assay [11] has as its system human lymphoma cell line Raji. Put plainly: Caspase cascade activation in Raji cells. As to conditions: RAJ1 cells, 48 h incubation, read-out: caspase potency EC50 RAJ1. The method, then:
as §1, §2, §3

As for `COc1ccccc1-c1nnc2sc(-c3cc4ccccc4o3)nn12` [Entry A1, 6-(Benzofuran-2-yl)-3-(2-methoxyphenyl)-[1,2,4]triazolo[3,4-b][1,3,4]thiadiazole], the pEC50 in assay [1] was 6.94; in [7] it was 7.04; in [8], 6.18; in [9] it was 6.49; in assay [10], 6.80; in assay [11], 6.70. Moreover, the GI50 in assay [2] is 0.126 µM; in assay [3], 0.124 µM; in assay [4] it was 2.5 µM; in assay [5] it was 0.966 µM; in assay [6] it was 0.058 µM.

As for `COc1cc(-c2nnc3sc(-c4ccc(C)cc4)nn23)cc(OC)c1OC` [Entry B1, 6-p-Tolyl-3-(3,4,5-trimethoxyphenyl)-[1,2,4]triazolo[3,4-b][1,3,4]thiadiazole], the pEC50 is 6.42 in [1]; 6.45 in assay [7]; 5.81 in assay [8]; 6.19 in assay [9]; 6.31 in [10]; 6.17 in assay [11]. Moreover, the concentration for 50% growth inhibition (GI50) came to 0.253 µM in [2]; 0.303 µM in assay [3]; 1 µM in [4]; 0.549 µM in [5]; 0.119 µM in [6].

Consider `COc1cccc(-c2nnc3sc(-c4ccc(N(C)C)cc4)nn23)c1` [Entry D1, 6-(4-Dimethylaminophenyl)-3-(3-methoxyphenyl)-1-[1,2,4]triazolo[3,4-b][1,3,4]thiadiazole], for which the pEC50 was 5.90 in assay [1]; 5.89 in assay [7]; 5.86 in assay [8]; 5.64 in assay [9]; 5.78 in assay [10]; 5.85 in [11]. Besides, the GI50 was determined as 1.13 µM in assay [2]; 1.02 µM in assay [3]; 6.83 µM in assay [4]; 2.6 µM in [5]; 0.647 µM in assay [6].

For the molecule `CN(C)c1ccc(-c2nn3c(-c4ccccc4Cl)nnc3s2)cc1` [Entry E1, 3-(2-Chlorophenyl)-6-(4-dimethylaminophenyl)-[1,2,4]triazolo[3,4-b][1,3,4]thiadiazole], the negative-log EC50 (pEC50) in assay [1] was 6.49; in assay [7] it was 6.49; in [8] it was 5.96; in assay [9], 5.92; in assay [10], 6.25; in [11], 6.24. The GI50 came out at 0.167 µM in [2]; 0.332 µM in [3]; 2.04 µM in assay [4]; 0.519 µM in assay [5]; 0.146 µM in assay [6].

In the case of `CCN(CC)c1ccc(-c2nn3c(-c4ccccc4C)nnc3s2)cc1` [Entry F1, 6-(4-Diethylaminophenyl)-3-o-tolyl-[1,2,4]triazolo[3,4-b][1,3,4]thiadiazole], the pEC50 in assay [1] is 6.15; in assay [7] it was 6.13; in assay [8] it was 6.18; in assay [9], 5.76; in assay [10], 6.12; in assay [11] it was 5.99. Further, the GI50 in assay [2] turned out to be 0.372 µM; in assay [3], 0.303 µM; in assay [4] it was 0.694 µM; in assay [5], 0.801 µM; in [6] it was 0.113 µM.

For the molecule `COc1cc(-c2nnc3sc(-c4ccncc4)nn23)cc(OC)c1OC` [X, 6-(Pyridin-4-yl)-3-(3,4,5-trimethoxyphenyl)-[1,2,4]triazolo[3,4-b][1,3,4]thiadiazole], the pEC50 in assay [1] is less than 5.00; in assay [7], less than 5.00; in [8] it was 5.44; in assay [9] it was 5.63; in assay [10], 5.70; in [11] it was less than 5.00.

Turning to `COc1cc(-c2nnc3sc(-c4cccs4)nn23)cc(OC)c1OC` [Y, 6-(Thiophen-2-yl)-3-(3,4,5-trimethoxyphenyl)-[1,2,4]triazolo[3,4-b][1,3,4]thiadiazole], the pEC50 in assay [1] is less than 5.00; in [7] it was less than 5.00; in assay [8] it was 5.26; in [9] it was less than 5.00; in assay [10] it was less than 5.00; in assay [11], less than 5.00.
